Experimental findings from US20100178277A1, “METHODS AND COMPOSITIONS FOR STIMULATING CELLS” (MEDIVATION NEUROLOGY, INC., priority 2007, published 2010) are described below.

The subject of assay [1] is primary rat hippocampal cells. Kind of assay: Mitochondrial JC-1 staining in ionomycin-treated primary rat hippocampal cells. It counts as cell-based. Conditions: Dimebon 0.25 nM and 2.5 nM; 0.25 μM ionomycin; compared with vehicle treatment. Here is the method:
(§1) Primary neuronal cultures were prepared from rat fetal tissue on the gestation days indicated from the cortex (day 17), hippocampus (day 19) or spine (day 15). Neurons were dissociated by trypsinization in the presence of DNAseI and trituration and cultured in Neurobasal (Gibco) medium supplemented with 2% B27 (Gibco), 0.5 mM L-Glutamine. Cells were plated on poly L-lysine coated plates, allowed to adhere and maintained at 37° C. in 5% CO2-95% air and then test compound was added for a period of 3 days. Cultures were fixed using 2.5% glutaraldehyde. Approximately 80 digital images were taken per condition. Neurite length was calculated using Image-Pro Plus. Each analysis was performed with two separate culture studies. Dimebon was tested at concentrations of 0.01-500 nM and BDNF at 50 ng/mL. Mitochondrial effects were assessed with primary rat hippocampal cells treated with Dimebon or vehicle and 0.25 μM ionomycin. Dimebon's effects on JC-1 mitochondrial staining was also assessed in ionomycin-treated human neuroblastoma cells (SK—N—SH). Mitochondrial accumulation of JC-1 was assessed by fluorescence microscopy.

Assay [2] relates to primary rat hippocampal neurons. In words: Neurite outgrowth of primary rat hippocampal neurons cultured with dimebon. It counts as cell-based. Here is the method:
To isolate hippocampal neurons, a female rat of 19 days gestation was killed by cervical dislocation, and the fetuses were removed from the uterus. Their brains were removed and placed in ice-cold medium of Leibovitz (L15, Gibco, Invitrogen). Meninges were carefully removed, and the hippocamps were dissected out. The hippocampal neurons were dissociated by trypsinization for 30 minutes at 37° C. (Trypsin-EDTA; Gibco) in the presence of DNAse I (Roche; Meylan). The reaction was stopped by the addition of DMEM (Gibco) cell culture medium with 10% of FBS (Gibco). The suspension was triturated with a 10-ml pipette using a needle syringe 21G and centrifuged at 350×g for 10 minutes at room temperature. The resulting pellet is resuspended in culture medium containing Neurobasal medium (Gibco) supplemented with 2% B27 supplement (Gibco) and 2 mM of glutamine (Gibco). Viable cells were counted in a Neubauer cytometer using the trypan blue exclusion test (Sigma) and seeded on the basis of 30,000 cells per Petri dish (Nunc) precoated with poly-L-lysine. Cells were allowed to adhere for two hours and maintained in a humidified incubator at 37° C. in 5% CO2-95% air atmosphere. After adhesion, a vehicle control or dimebon was added at different concentrations to the medium. BDNF (1.85 nM) was used as a positive control for neurite growth. After treatment, cultures were washed in phosphate-buffered saline (PBS, Gibco) and fixed in glutaraldehyde 2.5% in PBS. Cells were fixed after 3 days growth. Several pictures (˜80) of cells with neurites without any branching were taken per condition with a camera (Coolpix 995; Nikon) fixed on microscope (Nikon, objective 40×). The length measurements were made by analysis of the pictures using software from Image-Pro Plus (France). The results were expressed as mean (s.e.m.). Statistical analysis of the data was performed using one way analysis of variance (ANOVA). […]
The effect of Dimebon (100 nM) on neurite outgrowth using primary hippocampal neurons was evaluated by measuring neurite length (expressed % of control, FIG. 5A) and number of neurites per neuron (FIG. 5B). The effects of vehicle, Dimebon and BDNF (50 ng/mL) were determined after incubations of 24 hours, 48 hours and 72 hours. […]
(§2) Primary neuronal cultures were prepared from rat fetal tissue on the gestation days indicated from the cortex (day 17), hippocampus (day 19) or spine (day 15). […] Neurite length was calculated using Image-Pro Plus. […] Mitochondrial effects were assessed with primary rat hippocampal cells treated with Dimebon or vehicle and 0.25 μM ionomycin. Dimebon's effects on JC-1 mitochondrial staining was also assessed in ionomycin-treated human neuroblastoma cells (SK—N—SH). Mitochondrial accumulation of JC-1 was assessed by fluorescence microscopy.

Assay [3] relates to human neuroblastoma cells (SK—N—SH). Kind of assay: Mitochondrial JC-1 staining in ionomycin-treated SK-N-SH cells. It counts as cell-based. Here is the method: as §1
In assay [4] the test system is primary rat spinal motor neurons. Kind of assay: Neurite outgrowth of primary rat spinal motor neurons cultured with dimebon. It counts as cell-based. Conditions: picomolar and nanomolar concentrations; FIG. 4. Here is the method: (§3) Standard methods were used to isolate cortical neurons and spinal motor neurons. For the isolation of primary rat cortical neurons, the fetal brain from a pregnant rat at 17 days of gestation was prepared in Leibovitz's medium (L15; Gibco). The cortex was dissected out, and the meninges were removed. Trypsin (Gibco) was used to dissociate cortical neurons for 30 minutes at 37° C. with DNAse I. The cells were triturated in a 10 mL pipette in Dulbecco's Modified Eagle Media (“DMEM”; Gibco) with 10% Fetal Bovine Serum (“FBS”) (Gibco) and centrifuged at 350×g for 10 minutes at room temperature. The cells were suspended in Neurobasal medium supplemented with 2% B27 (Gibco) and 0.5 mM L-glutamine (Gibco). […] The results were expressed as mean (s.e.m.). […]
as §2

The test system of assay [5] is primary rat cortical neurons. Kind of assay: Neurite outgrowth of primary rat cortical neurons cultured with dimebon. In kind it is cell-based. To be noted: low concentrations (picomolar and nanomolar); 3 days growth; FIG. 1. As to the method: as §3, §2
For assay [6], the system named is BrdU positive cells/neurons in the hippocampus and dentate gyrus. Kind of assay: Neurogenesis in healthy rats: BrdU / NeuN immunohistochemistry of hippocampus and dentate gyrus. It counts as in vivo, Wistar rats. Conditions: 14 days. An excerpt: Wistar rats were obtained from Charles River or Harlan Winkelmann (Germany). Male rats were approximately 3 months old upon arrival at the animal colony. Animals were kept in an animal facility under standardized conditions and according to the animal welfare regulations of the Ministry of Science of the Austrian government. A record of bodyweights was maintained. The animals were allowed to acclimatize for at least one week prior to any experimental manipulations. Twelve rats per group were maintained on a 12 hour light/dark cycle. Three backup animals were maintained in order to compensate for animal loss. All rats were housed in groups of four per cage and had ad libitum access to food and water. Rats were randomly allocated to four different treatment groups receiving intraperitoneal (i.p.) 5-bromo-2-deoxyuridine (BrdU, Sigma #B9285, 50 mg/kg body weight (b.w.)) and either (i) Dimebon at 10 mg/kg b.w./twice a day; (ii) Dimebon at 30 mg/kg b.w./twice a day; (iii) Dimebon at 60 mg/kg b.w./twice a day; or (iv) 0.2 mL vehicle (saline) twice a day. Treatment with BrdU, a synthetic nucleoside analog of thymidine, is commonly used to detect proliferating cells in living tissues such as the brain. Dimebon and vehicle were administered orally twice a day in a volume of 0.2 mL. BrdU was administered every other day. The daily Dimebon or vehicle treatment was performed several minutes before BrdU treatment. On day 14, animals were sacrificed approximately four hours after the last Dimebon treatment and one day after the last BrdU treatment. Diluted dimebon was prepared fresh daily. At sacrifice, the rats were sedated using standard anesthesia. After transcardial perfusion with phosphate buffered saline (PBS) followed by 4% Paraformaldehyde/PBS, the brain from each rat was carefully removed, post-fixed in 4% Paraformaldehyde/PBS for one hour, transferred to 15% sucrose for cryoprotection, and shock-frozen in liquid isopentane. Brains were stored at −80° C. until cryo-cutting. The brains were cut sagittally using a cryotome and stored at −20° C. until staining. Five layers were cut with 10 sections at 20 micrometers per layer with an interlayer slice gap of 100 micrometers. Standard Cresyl-Violett staining was performed on two consecutive slices per animal. BrdU immunohistochemistry was quantified to provide a morphological overview of cell division. For the evaluation of BrdU positive cells/neurons, sections were processed by double-incubation with mouse anti-Neuronal Nuclei (NeuN) monoclonal antibody (Chemicon) and anti-BrdU (Abcam). One section per layer was treated in a three-day double-incubation with mouse anti-Neuronal Nuclei (NeuN) monoclonal antibody 1:800 (Chemicon, Hofheim. Germany) and anti-BrdU (sheep polyclonal to BrdU) 1:500 (Abcam, Cambridge, UK). The secondary antibodies were a Cy-3-conjugated pure affine goat anti-mouse IgG (H+L) 1:200 (Jackson ImmunoResearch, Cambridgeshire, UK) and a Cy 2-conjugated pure affine F(ab′)2 fragment of donkey anti-sheep IgG (H+L) 1:100 (Jackson ImmunoResearch, Cambridgeshire, UK). Briefly, the anti-NeuN antibody was incubated overnight at 4° C., the Cy3 antibody was incubated the next day for one hour at room temperature, followed by the anti-BrdU antibody overnight at 4° C. and the Cy2 antibody for one hour at room temperature. To open the cell surfaces before the BrdU incubation, slices were treated with 2N HCl for 15 minutes at 40° C. and then washed for 20 minutes in a methanol mixture (60 ml methanol, 2 ml H2O2, and 0.6 ml Triton X) to block endogenous peroxidases. Niss1 staining was used as an overview staining. Tiled images of the sagittal slice including the cortex and the hippocampus were recorded at 200-fold magnification. Each single image used a PCO PixelFly camera mounted on a NikonE800 microscope equipped with an software controlled (StagePro) automatic table. Both fluorescent colors, red for NeuN and green for BrdU, were recorded separately. For quantification, the images were merged. […]

Molecules are shown by their SMILES.

For `Cc1ccc2c(c1)c1c(n2CCc2ccc(C)nc2)CCN(C)C1.Cl.Cl` [Dimebon, 2,8-dimethyl-5-(2-(6-methyl-3-pyridyl)-ethyl)-2,3,4,5-tetrahydro-1H-pyrido[4,3-b]indole dihydrochloride], the “mitochondrial JC-1 staining” value in assay [1] and in assay [3] was “preserved” in each case. Also, the “effect on neurite length and number of neurites per neuron relative to BDNF” value in assay [2] (Dimebon 100 nM vs BDNF 50 ng/mL, 24, 48, 72 hours) was “comparable”. Moreover, the neurite length result in assay [2] (Dimebon 100 nM, incubations of 24, 48 and 72 hours, compared to vehicle, FIG. 5A) was “increased”. For the same molecule, the “number of neurites per neuron” value in assay [2] (Dimebon 100 nM, incubations of 24, 48 and 72 hours, compared to vehicle, FIG. 5B) is “increased”. Besides, in assay [2] (picomolar and nanomolar concentrations, 3 days growth, FIG. 3), the “neurite outgrowth of primary rat hippocampal neurons” value was “stimulated”. Further, the “neurite outgrowth of primary rat spinal motor neurons” value in assay [4] was “stimulated”. In addition, the “neurite outgrowth of primary rat cortical neurons” value in assay [5] is reported as “stimulated”. In addition, the “BrdU positive progenitor cells in the dentate gyrus” value was “significant increase” in assay [6] (30 mg/kg Dimebon vs vehicle, p=0.05, FIG. 7A) and “significant increase” in assay [6] (60 mg/kg Dimebon vs vehicle-treated group, p=0.05, FIG. 7A). Besides, the “BrdU positive progenitor cells in the hippocampus” value in assay [6] (60 mg/kg Dimebon vs vehicle-treated group, p=0.05, FIG. 6A) is “significant increase”. In assay [6] (60 mg/kg Dimebon vs vehicle-treated group, p=0.05, FIG. 6B), the “BrdU positive neurons (NeuN and BrdU IR) in the hippocampus” value was “significant increase”. For the same molecule, the “BrdU positive neurons (NeuN and BrdU IR) in the dentate gyrus” value in assay [6] (60 mg/kg Dimebon vs vehicle-treated group, p=0.05, FIG. 7B) is recorded as “significant increase”. Also, in assay [6] (rats, oral twice a day, FIG. 6A), the “total number of BrdU staining cells in the hippocampus” value is recorded as “increases”. Besides, the “number of BrdU staining neurons in the hippocampus” value in assay [6] (rats, oral twice a day, FIG. 6B) is recorded as “increases”. In assay [6] (rats, oral twice a day, FIG. 7A), the “total number of BrdU staining cells in the dentate gyrus” value is recorded as “increases”. The “number of BrdU staining neurons in the dentate gyrus” value in assay [6] (rats, oral twice a day, FIG. 7B) is given as “increases”.
